“Also recorded” adds a separate entry of the source. Peptide text beside a SMILES is read from it. * marks the point of attachment. Cbz = O=C(OCc1ccccc1)*
Assays:
[1] = system: MII eggs; assay: Activation of in vivo ovulated MII eggs (SrCl2, TPEN, ZnPT pre-treatment)
Description: Ovulated MII eggs were collected as described above. Eggs were transferred to KSOM medium with or without 10 μM ZnPT (1:1000 dilution of a 10 mM stock in DMSO) for exactly 5 minutes. Eggs were then washed in KSOM and allowed to recover for 10-15 minutes prior to activation. For SrCl2 activation, eggs were transferred to drops of calcium-free KSOM containing 10 mM SrCl2 for 2 hours, followed by 4 additional hours of culture in calcium-containing KSOM without SrCl2. TPEN activation was performed as previously described (Kim et al., 2011); eggs were cultured for 6 hours in KSOM containing 10 μM TPEN. Unactivated controls were cultured in KSOM for the same 6 hour time period to assess levels of spontaneous parthenogenesis.
MII eggs were treated with the ionophore zinc pyrithione (ZnPT) for 5 minutes to increase intracellular zinc. Following a 10-15 minute recovery period, eggs were then treated with activating agents SrCl2 or TPEN.

[2] = system: CCNB1; assay: Western blot for CCNB1 in oocytes; assay type: cell-based, mouse; details: TPEN 10 h, then TPEN + 20 μM MG132 6 h
Description: Western blotting was performed essentially as previously described (Bernhardt et al., 2010). Briefly, 15 to 50 cumulus-denuded oocytes were transferred in a minimal amount of medium to microcentrifuge tubes and immediately lysed in 8 μL of 1x SDSPAGE Sample Buffer (Laemmli, 1970). SDS-PAGE gels were run using the Invitrogen NuPAGE system and transferred to Immobilon-P PVDF membranes (Millipore, Billerica, MA). Blocking and antibody incubations were in 2% w/v ECL Advanced Blocking Reagent (Amersham) in TBS-T (20mM Tris, pH7.4, 137mM NaC1, 0.1% Tween20 v/v). Anti-CCNB1antibody was diluted 1:500, anti-FBXO43 was used at 1:1000 dilution, and anti-tubulin antibody was used at 1:10,000. HRP-conjugated secondary antibodies were diluted 1:10,000. Detection was performed using Amersham ECL Advanced detection reagent. BIOMAX MR films (Kodak, Rochester, NY) were exposed and developed, or an Alpha-Innotech (San Learndo, CA) MultiImage II system was used.

[3] = system: zinc-insufficient oocytes; assay: Spindle phenotype scoring after IVM in TPEN with proteasome inhibitor MG132 added after 10 h; assay type: cell-based, mouse; details: TPEN 10 h, then TPEN + 20 μM MG132 6 h
Description: For IVM studies, immature female CD1 mice (17 to 21 day old) were injected with 5IU equine chorionic gonadotropin (eCG) (Calbiochem, La Jolla, CA) in 100 μL sterile phosphate-buffered saline (PBS), intraperitoneally. After 44 to 48 hours, mice were anesthetized using isoflurane and euthanized by cervical dislocation. Dissected ovaries were placed in Leibovitz L-15 medium containing 1% FBS (L-15/FBS) and 0.2mM 3-isobutyl-1-methylxanthine (IBMX), and large antral follicles were punctured using 28 gauge needles to release cumulus oocyte complexes (COCs). COCs were washed through several drops of culture medium consisting of Minimum Essential Medium (MEM)-alpha with GLUTAMAX supplemented with 10% FBS, 1.5IU/mL human chorionic gonadotropin (hCG), and 5ng/mL epidermal growth factor and placed in culture medium with or without 10 μM N,N,N′,N′-tetrakis(2-pyridylmethyl) ethylenediamine (TPEN). In some experiments Z-Leu-Leu-Leu-al (MG132) was added to culture medium at 20 μM. COCs were cultured in drops of pre-equilibrated medium covered with embryo quality mineral oil at 37° C. in 5% CO2 with a humid environment. Ovulated MII eggs were collected from 4 to 6 week old mice primed with 5IU PMSG followed 48 h later by 5IU hCG. Oviducts were dissected into L-15/FBS, and eggs were removed and treated with 0.03% (w/v) hyaluronidase to remove cumulus cells. Eggs were washed and cultured in potassium simplex optimized medium (KSOM) (Millipore, Billerica, MA) covered with embryo quality mineral oil at 37° C. in 5% CO2.
Oocytes were denuded of cumulus cells and fixed in a microtubule stabilizing buffer (Ibanez et al., 2005) containing 2% formaldehyde and 1% Triton X-100 for 30 min at 37° C. Oocytes were washed and blocked in PBS containing 0.1M glycine, 3mg/mL BSA, 0.01% Tween 20, and 0.01% sodium azide for at least 1 h and were stored in blocking solution at 4° C. for up to 2 weeks. Oocytes were incubated with anti-tubulin antibody (1:100) for 1 h at 37C. followed by three washes in blocking solution. They were then incubated for 1 h in AlexaFluor-488 conjugated anti-mouse secondary antibody (5μg/mL) and rhodamine-phalloidin (2U/mL), washed three additional times, and mounted in VECTASHIELD with DAPI. Microscopy was performed using a Leica SP5 inverted laser-scanning confocal microscope with a 63x oil immersion objective (Leica Microsystems, Heidelberg, Germany). Images were processed using LAS AF software (Leica Microsystems).
It has been previously shown that zinc-insufficient oocytes fail to increase MPF activity following the first meiotic division and have low CCNB1 protein levels (Bernhardt et al., 2010). In order to determine whether this decrease in CCNB1 is the major cause of the observed meiotic arrest phenotype, it was tested whether increasing CCNB1 would be sufficient to rescue MII entry in zinc-insufficient oocytes by inhibiting the proteasome at the end of the MI-MII transition, thereby halting CCNB1 degradation. Experimental oocytes were cultured for 10 hours in TPEN-containing medium and were then transferred into medium containing TPEN as well as the proteasome inhibitor Z-Leu-Leu-Leu-al (MG132) at 20 μM concentration. MG132 was added after first polar body extrusion, because earlier addition would result in MI arrest due to failure to degrade APC/C targets that prevent cell division. Oocytes were cultured for an additional 6 h in the presence of MG132 to allow time for CCNB1 reaccumulation, for a total 16 h IVM culture period. Proteasome inhibition led to a partial rescue of the zinc insufficiency phenotype. 69% of treated oocytes formed spindle-like structures, and none were in telophase I arrest, despite being cultured in the presence of TPEN for the entire culture period (FIG. 2, A; Table 2).
A majority of zinc-insufficient oocytes treated with MG132 following the first meiotic division transition progress beyond telophase-I arrest and form MII spindle-like structures. […]

[4] = system: MPF activity; assay: Histone H1 kinase assay on single oocytes/eggs (MPF activity); assay type: cell-based, mouse; details: TPEN 10 h, then TPEN + 20 μM MG132 6 h
Description: Histone H1 and myelin basic protein (MBP) dual kinase assays were performed as previously described (Svoboda et al., 2000). Dried gels were exposed to Kodak BIOMAX MR films for 12 to 72 hours at −80° C. using Kodak intensifying screens; films were developed, scanned, and analyzed using ImageJ software. Assays were performed on single oocytes, and densitometric analysis is expressed relative to levels in control eggs.

Molecule: zinc pyrithione [ZnPT]
- MII spindle organisation after ZnPT ([1]; 10 μM ZnPT 5 minutes, unactivated eggs and SrCl2-treated eggs, 6 hours of culture): caused spindle abnormalities
- egg activation by TPEN after ZnPT pre-treatment ([1]; MII eggs, 10 μM ZnPT 5 minutes, then 10 μM TPEN 6 h): formed second polar bodies and PN-like structures
- egg activation by SrCl2 after ZnPT pre-treatment ([1]; MII eggs, 10 μM ZnPT 5 minutes, then 10 mM SrCl2): did not show signs of activation

Molecule: [Cl-].[Cl-].[Sr+2] [SrCl2]
- egg activation (second polar body and PN or PN-like structures) ([1]; control MII eggs, by 6 hours post activation, 10 mM SrCl2 2 h or 10 μM TPEN 6 h): activated normally

Molecule: CC(C)C[C@@H](C=O)NC(=O)[C@H](CC(C)C)NC(=O)[C@H](CC(C)C)NC(=O)OCc1ccccc1 [MG132, Z-Leu-Leu-Leu-al] (Cbz-Leu-Leu-Leu-aldehyde)
- CCNB1 protein levels [2]: only partially restores; also recorded: only slightly increased
- oocytes with some degree of MII spindle formation (spindle-like structures) [3]: 69%
- MII (aligned metaphase plate) ([3]; n=26): 19%
- other spindle phenotype ([3]; n=26): 15%
- persisting midbody or chromatin mass ([3]; n=26): 15%
- spindle with chr. scattered along length ([3]; n=26): 19%
- spindle with ≦3 chr. out of place ([3]; n=26): 31%
- MPF activity (histone H1 kinase) compared to oocytes cultured with TPEN alone [4]: increased
